In article PMC11870037 (Molecules, 2024):

How the values were obtained:
mice [1] = experiment: Tail suspension test (TST); assay type: in vivo, mouse; settings: oral, immobility duration
Dopamine D2 receptor = Dopamine D2 receptor (Rattus norvegicus, UniProt P61169); experiment: Dopamine D2 receptor binding ([3H]spiperone); settings: rat striatum
Histamine H2 receptor = Histamine H2 receptor (Homo sapiens, UniProt P25021); experiment: Histamine H2 receptor binding ([3H]tiotidine, Sf9 membranes); settings: Sf9 cells and membrane
hERG potassium channel = molecular target: T1, hERG potassium channel (Homo sapiens, UniProt Q12809); experiment: hERG whole-cell patch clamp in HEK 293 cells; assay type: cell-based
T1 construct: expressed in transfected cells; host or cells: HEK 293

SERT = molecular target: T2, SERT (Rattus norvegicus, UniProt P31652); experiment: biochemical; assay type: binding
T2 construct: [3H]-paroxetine, rat cerebral cortex; from tissue; host or cells: rat cerebral cortex (membranes / crude synaptosomes)

Histamine H4 receptor = molecular target: T3, Histamine H4 receptor (Homo sapiens, UniProt Q9H3N8); experiment: Histamine H4 receptor binding ([3H]Na-Methylhistamine, Sf9 membranes); settings: Sf9 cells and membrane
T3 construct: expressed in transfected cells; host or cells: Sf9 membranes

adrenergic α1 receptor = experiment: Adrenergic α1 receptor binding assay ([3H]prazosin); settings: rat cerebral cortex, means ± SEM of three experiments, read-out: Receptor Affinity Ki ± SEM α1
[2] = Pharmacokinetic study in rats; assay type: in vivo; settings: rat, plasma
Method: 7. Pharmacokinetics Study
The HPLC conditions were as follows: Shimadzu LC30AD spectrometer ; column, SHIMADZU C18 (2.1 mm×50 mm, 2 μm); mobile phase A: 0.1% FA-Acetonitrile; mobile phase B: 0.1% FA-Deionized water; ﬂow rate, 0.4 mL/min; column temperature: 25 °C; UV detection was performed at 210 nm. The Mass conditions were as follows: ESI (positive), Ion spray voltage: 5500V, Curtain gass: 30, Temperature: 550°C, Ion Source Gas1: 55, Collision Gas: 7. For routine compound 11b screening, rats (n = 6/group) were dosed via the lateral tail vein at the indicated dose for iv administration (2 mg/kg, NS) or via oral gavage (20 mg/kg, Deionized water). At 0, 0.08, 0.25, 0.5,1、2、4、7、10 and 24h after administration, serial blood samples were collected from the lateral tail vein into heparinized collection tubes (approximately 0.25 mL). The plasma was separated by centrifugation, and the sample was prepared for LC/MS analysis by protein precipitation with acetonitrile. The plasma samples were analyzed for drug and internal standard via the LCMS/MS protocol.

NET [3] = molecular target: T4, NET (Rattus norvegicus, UniProt Q63380); experiment: biochemical; settings: Receptor Affinity Ki ± SEM NET, rat hippocampal membrane, [3H]nisoxetine; means ± SEM of three experiments
[4] = molecular target: T5, Serotonin 5-HT2C receptor (Rattus norvegicus, UniProt P08909); experiment: Serotonin 5-HT2C receptor binding ([3H]mesulergine); settings: rat brain cortex
T5 construct: The cerebral cortex of a rat was processed by homogenization; from tissue; host or cells: rat cerebral cortex membranes

Adrenergic α2 receptor = Adrenergic α2 receptor binding ([3H]-rauwolscine); settings: rat cerebral cortex
muscarinic M1 receptor = molecular target: T6, muscarinic M1 receptor (Homo sapiens, UniProt P11229); experiment: Muscarinic M1 receptor binding (peripheral blood lymphocytes); settings: lymphocyte suspension and sections
T6 construct: blood lymphocytes were used at a concentration of 1 × 10⁶ cells; endogenous in cells; host or cells: peripheral blood lymphocytes

NET [5] = molecular target: T4, NET; experiment: Monoamine uptake transporter assay, [3H]NE uptake by NET; assay type: biochemical
Dopamine D3 receptor = molecular target: T7, Dopamine D3 receptor (Rattus norvegicus, UniProt P19020); experiment: Dopamine D3 receptor binding ([3H]7-OH-DPAT); settings: rat olfactory tubercle
T7 construct: A rat olfactory tubercle was homogenized in 20 volumes of ice; from tissue; host or cells: rat olfactory tubercle membranes

recombinant hH3R = recombinant hH3R (Homo sapiens, UniProt Q9Y5N1); experiment: H3 receptor intrinsic activity assay ([35S]GTPγS binding); assay type: biochemical
mice [6] = experiment: Locomotor activity test; assay type: in vivo, mouse; settings: oral 5, 10, 20, 40, and 80 mg/kg, 15 min period
mice [7] = settings: oral, immobility duration
[8] = molecular target: T8, M3 muscarinic cholinergic receptor (Homo sapiens, UniProt P20309); experiment: Muscarinic M3 receptor binding (lymphocyte suspension); settings: lymphocyte suspension and sections
T8 construct: blood lymphocytes were used at a concentration of 1 × 10⁶ cells; endogenous in cells; host or cells: peripheral blood lymphocytes
Method: Antagonist potency was determined according to literature, by measuring inhibition of RAMH-induced [35S]GTPγS binding in recombinant hH3R membranes as previously. The […]
Inverse agonist potency was conducted by measuring inhibition of basal [35S]GTPγS binding in recombinant hH3 Rmembranes. Test compound or vehicle was added to the wells, followed by [35S]GTPγS to a final concentration of 0.2 nM. Nonspecific binding was determined in the presence of 10 μM unlabeled GTPγS. The control agonist signal was determined in wells containing vehicle in place of the test compound, and the basal signal was determined in wells containing vehicle in place of both diluted compound and the RAMH […]
3. Selectivity of Compound 11b for Additional Receptors […]
transporter, 3[H]-WIN35,428, rat striatum; (2) Dopamine D1 receptor, 3[H]-SCH23390, rat striatum; (3) Dopamine D2 receptor, [3H]spiperone, rat striatum; (4) Dopamine D3 receptor, [3H] 7-OH-DPAT, rat olfactory tubercle; (5) Serotonin 5-HT2A receptor, [3H]Ketanserin, rat brain cortex;
(6) Serotonin 5-HT2C receptor, [3H]mesulergine, rat brain cortex; (7) Adrenergic α2 receptor, [3H]- rauwolscine, rat cerebral cortex; (8) Histamine H2 receptor, [3H]tiotidine, Sf9 cells and […]

T4 sequence (Q63380 1-617): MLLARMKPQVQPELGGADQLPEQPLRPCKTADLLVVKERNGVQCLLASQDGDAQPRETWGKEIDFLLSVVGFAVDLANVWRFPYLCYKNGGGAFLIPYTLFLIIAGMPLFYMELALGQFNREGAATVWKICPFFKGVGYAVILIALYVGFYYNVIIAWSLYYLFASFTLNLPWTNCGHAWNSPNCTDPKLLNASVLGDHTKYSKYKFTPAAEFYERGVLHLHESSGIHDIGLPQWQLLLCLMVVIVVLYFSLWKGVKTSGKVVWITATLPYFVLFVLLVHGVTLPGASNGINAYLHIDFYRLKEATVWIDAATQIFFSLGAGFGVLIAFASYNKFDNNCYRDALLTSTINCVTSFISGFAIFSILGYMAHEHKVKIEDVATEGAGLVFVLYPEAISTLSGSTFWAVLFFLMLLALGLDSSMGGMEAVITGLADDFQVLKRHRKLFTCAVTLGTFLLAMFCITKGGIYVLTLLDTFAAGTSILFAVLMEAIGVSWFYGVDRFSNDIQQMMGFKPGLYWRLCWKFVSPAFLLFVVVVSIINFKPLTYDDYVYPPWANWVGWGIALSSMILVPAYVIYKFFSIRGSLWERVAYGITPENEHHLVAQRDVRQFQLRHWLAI
recombinant hH3R, sequence (Q9Y5N1 whole entry): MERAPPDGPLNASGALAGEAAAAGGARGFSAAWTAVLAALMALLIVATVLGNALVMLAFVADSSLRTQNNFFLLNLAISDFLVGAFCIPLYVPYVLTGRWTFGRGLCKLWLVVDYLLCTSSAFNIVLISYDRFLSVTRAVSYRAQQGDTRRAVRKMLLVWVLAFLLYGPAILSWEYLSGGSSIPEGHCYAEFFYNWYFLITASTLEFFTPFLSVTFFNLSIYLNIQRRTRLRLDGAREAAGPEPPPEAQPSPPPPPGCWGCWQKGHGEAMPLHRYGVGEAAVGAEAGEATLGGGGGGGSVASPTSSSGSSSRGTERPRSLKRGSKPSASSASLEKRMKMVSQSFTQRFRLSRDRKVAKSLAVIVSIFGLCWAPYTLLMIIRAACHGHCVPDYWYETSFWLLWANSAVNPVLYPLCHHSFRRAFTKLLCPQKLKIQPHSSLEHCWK
T2 sequence (P31652 whole entry): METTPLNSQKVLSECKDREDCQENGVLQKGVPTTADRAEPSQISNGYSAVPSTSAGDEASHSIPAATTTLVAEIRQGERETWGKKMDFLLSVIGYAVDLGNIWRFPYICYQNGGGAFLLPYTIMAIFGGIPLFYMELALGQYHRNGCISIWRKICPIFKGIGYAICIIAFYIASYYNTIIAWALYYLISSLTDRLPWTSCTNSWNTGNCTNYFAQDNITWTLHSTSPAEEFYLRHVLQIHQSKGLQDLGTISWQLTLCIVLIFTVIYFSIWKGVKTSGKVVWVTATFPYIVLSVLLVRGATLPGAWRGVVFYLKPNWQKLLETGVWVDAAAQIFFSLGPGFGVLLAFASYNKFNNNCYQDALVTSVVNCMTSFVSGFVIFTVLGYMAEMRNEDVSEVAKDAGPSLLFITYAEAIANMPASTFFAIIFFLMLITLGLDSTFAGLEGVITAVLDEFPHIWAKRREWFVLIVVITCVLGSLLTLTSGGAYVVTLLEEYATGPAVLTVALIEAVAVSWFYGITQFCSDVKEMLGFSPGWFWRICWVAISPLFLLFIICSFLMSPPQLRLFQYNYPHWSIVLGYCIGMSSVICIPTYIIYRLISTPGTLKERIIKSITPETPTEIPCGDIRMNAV
Dopamine D2 receptor, sequence (P61169 1-415 isoform P61169-2): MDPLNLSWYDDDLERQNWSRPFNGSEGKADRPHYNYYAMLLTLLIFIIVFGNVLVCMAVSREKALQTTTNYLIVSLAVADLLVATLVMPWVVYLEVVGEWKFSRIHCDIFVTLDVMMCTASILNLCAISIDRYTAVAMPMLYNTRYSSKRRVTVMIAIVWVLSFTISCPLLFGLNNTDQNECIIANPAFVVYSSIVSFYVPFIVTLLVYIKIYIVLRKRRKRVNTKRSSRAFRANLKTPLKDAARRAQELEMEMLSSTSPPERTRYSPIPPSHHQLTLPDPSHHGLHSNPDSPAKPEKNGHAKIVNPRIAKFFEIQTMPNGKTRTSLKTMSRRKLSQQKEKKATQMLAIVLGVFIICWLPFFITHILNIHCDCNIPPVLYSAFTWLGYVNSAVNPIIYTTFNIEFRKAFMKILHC
T8 sequence (P20309 whole entry): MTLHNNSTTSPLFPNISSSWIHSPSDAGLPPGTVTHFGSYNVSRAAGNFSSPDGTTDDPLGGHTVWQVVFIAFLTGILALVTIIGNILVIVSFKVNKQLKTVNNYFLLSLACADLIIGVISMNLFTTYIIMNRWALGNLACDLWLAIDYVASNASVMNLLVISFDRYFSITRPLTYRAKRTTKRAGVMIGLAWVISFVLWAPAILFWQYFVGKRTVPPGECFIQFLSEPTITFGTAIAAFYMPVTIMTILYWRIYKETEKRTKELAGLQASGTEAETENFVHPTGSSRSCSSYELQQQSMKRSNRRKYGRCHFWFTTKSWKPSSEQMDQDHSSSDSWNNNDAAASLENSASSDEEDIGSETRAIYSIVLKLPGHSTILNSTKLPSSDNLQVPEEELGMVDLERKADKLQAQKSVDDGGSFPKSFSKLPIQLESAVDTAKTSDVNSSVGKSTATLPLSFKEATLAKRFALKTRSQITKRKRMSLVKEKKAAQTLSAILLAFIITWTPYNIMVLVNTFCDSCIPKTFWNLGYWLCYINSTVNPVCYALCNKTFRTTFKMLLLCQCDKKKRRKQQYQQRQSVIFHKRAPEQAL
T5 sequence (P08909 33-460): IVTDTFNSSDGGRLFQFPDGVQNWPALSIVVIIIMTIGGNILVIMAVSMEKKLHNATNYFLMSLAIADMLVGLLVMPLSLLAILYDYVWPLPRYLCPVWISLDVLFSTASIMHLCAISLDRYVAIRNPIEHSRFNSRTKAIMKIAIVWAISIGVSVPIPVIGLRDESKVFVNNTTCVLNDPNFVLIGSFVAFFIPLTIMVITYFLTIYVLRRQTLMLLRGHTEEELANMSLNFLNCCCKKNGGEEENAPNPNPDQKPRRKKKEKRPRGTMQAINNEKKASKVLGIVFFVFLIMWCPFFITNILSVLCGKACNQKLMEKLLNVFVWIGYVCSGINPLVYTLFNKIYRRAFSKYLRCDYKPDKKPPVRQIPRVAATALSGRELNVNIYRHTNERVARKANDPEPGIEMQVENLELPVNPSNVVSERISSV
T7 sequence (P19020 whole entry): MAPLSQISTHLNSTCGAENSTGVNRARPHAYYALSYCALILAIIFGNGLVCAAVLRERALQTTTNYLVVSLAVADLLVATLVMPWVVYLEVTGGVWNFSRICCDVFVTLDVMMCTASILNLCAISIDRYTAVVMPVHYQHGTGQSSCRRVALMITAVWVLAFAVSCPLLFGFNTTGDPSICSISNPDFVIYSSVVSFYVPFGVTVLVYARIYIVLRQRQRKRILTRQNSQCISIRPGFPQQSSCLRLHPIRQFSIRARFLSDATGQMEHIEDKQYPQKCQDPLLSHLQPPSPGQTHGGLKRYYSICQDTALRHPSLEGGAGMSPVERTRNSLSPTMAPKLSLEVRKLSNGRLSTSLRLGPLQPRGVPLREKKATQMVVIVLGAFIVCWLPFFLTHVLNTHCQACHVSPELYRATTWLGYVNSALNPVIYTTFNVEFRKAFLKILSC
T1 sequence (Q12809 whole entry): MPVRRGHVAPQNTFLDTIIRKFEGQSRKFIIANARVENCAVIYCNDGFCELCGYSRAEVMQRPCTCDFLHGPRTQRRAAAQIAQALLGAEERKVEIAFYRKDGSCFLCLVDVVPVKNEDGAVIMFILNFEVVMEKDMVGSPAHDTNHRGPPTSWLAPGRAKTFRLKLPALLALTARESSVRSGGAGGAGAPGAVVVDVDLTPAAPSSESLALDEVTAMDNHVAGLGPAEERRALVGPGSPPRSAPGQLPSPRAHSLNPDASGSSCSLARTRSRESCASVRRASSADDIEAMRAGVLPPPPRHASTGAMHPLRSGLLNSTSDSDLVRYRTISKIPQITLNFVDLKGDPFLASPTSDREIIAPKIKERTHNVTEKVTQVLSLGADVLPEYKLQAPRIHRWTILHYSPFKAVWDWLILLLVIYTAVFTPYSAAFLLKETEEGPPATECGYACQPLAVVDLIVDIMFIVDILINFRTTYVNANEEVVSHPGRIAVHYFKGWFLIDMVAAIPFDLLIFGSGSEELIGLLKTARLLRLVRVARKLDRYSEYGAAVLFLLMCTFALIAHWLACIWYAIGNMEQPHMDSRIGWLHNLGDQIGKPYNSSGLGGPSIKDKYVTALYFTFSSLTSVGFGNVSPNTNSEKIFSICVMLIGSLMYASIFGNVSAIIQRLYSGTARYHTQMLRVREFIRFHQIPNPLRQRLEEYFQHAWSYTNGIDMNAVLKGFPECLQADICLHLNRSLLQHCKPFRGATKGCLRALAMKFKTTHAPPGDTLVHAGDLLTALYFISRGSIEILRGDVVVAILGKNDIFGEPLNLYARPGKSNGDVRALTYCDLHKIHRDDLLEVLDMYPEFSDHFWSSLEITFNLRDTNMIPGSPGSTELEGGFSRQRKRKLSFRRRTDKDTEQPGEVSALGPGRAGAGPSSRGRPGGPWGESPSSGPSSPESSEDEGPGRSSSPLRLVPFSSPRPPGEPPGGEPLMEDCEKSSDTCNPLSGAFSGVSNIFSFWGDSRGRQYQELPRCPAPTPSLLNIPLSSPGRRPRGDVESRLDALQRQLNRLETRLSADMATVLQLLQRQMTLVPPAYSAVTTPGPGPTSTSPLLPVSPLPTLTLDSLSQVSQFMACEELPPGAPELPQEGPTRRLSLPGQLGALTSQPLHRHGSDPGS

CN(C)CCC(Oc1cccc2c1OCO2)c1ccc(OCCCN2CCCCC2)cc1.O=C(O)C(=O)O (stereo not shown) [Compound 11b, 3-(benzo[d][1,3]dioxol-4-yloxy)-N,N-dimethyl-3-(4-(3-(piperidin-1-yl)propoxy)phenyl)propan-1-amine oxalate]
minimal effective dose (MED) in TST (mice [1]): 10 mg/kg | Ki (Dopamine D2 receptor): > 1000 nM | Ki (Histamine H2 receptor): > 1000 nM | IC50 (hERG potassium channel): 1000 ± 112 nM | Ki (SERT; rat cerebral cortex, [3H]-paroxetine, means ± SEM of three experiments, read-out: Receptor Affinity Ki ± SEM SERT): 7.8 ± 0.9 nM | potency ratio among SERT, NET, and H3 (SERT; ratio of binding Ki values for SERT, NET, H3): < 10 fold | Ki (Histamine H4 receptor): > 1000 nM | Ki (adrenergic α1 receptor): 1170 ± 126 nM | AUC(0-inf) ([2]; 2 mg/kg iv): 265 ng·h/mL | AUC(0-t) ([2]; 2 mg/kg iv): 261 ng·h/mL | Cmax ([2]; 2 mg/kg iv): 224 ng/mL | MRT last ([2]; 2 mg/kg iv): 1.2 h | Tmax ([2]; 2 mg/kg iv): 0.08 h | half-life ([2]; 2 mg/kg iv): 1.3 h | AUC(0-inf) ([2]; 20 mg/kg po): 944 ng·h/mL | AUC(0-t) ([2]; 20 mg/kg po): 942 ng·h/mL | Cmax ([2]; 20 mg/kg po): 134 ng/mL | MRT last ([2]; 20 mg/kg po): 5.4 h | Tmax ([2]; 20 mg/kg po): 2 h | half-life ([2]; 20 mg/kg po): 2.6 h | bioavailability ([2]; 20 mg/kg po vs 2 mg/kg iv, read-out: F (bioavailability)): 35.6% | Ki (NET [3]): 10.5 ± 1.2 nM | Ki [4]: > 1000 nM | Ki (Adrenergic α2 receptor): > 1000 nM | Ki (muscarinic M1 receptor): > 1000 nM | Activation (10 μM, %) NET (NET [5]; 10 μM, n = 3): 2.7 ± 0.2% | inhibition at 10 µM (NET [5]; 10 μM, n = 3): > 90% | IC50 (NET [5]; [3H]NE uptake, antagonist assay): 49.6 nM | Ki (Dopamine D3 receptor): > 1000 nM | inhibition at 10 µM (recombinant hH3R; 10 μM, n = 3): > 90% | IC50 (recombinant hH3R; antagonist assay, RAMH-induced [35S]GTPγS binding): 0.72 nM | total travel distance (locomotor activity) (mice [6]): did not significantly alter the total travel distance | minimal effective dose (MED) in FST (mice [7]): 6 mg/kg | Ki [8]: > 1000 nM
